The structures appear in SMILES notation. pKd: −log10 of the molar value.

In the experiment the target is Nano-lantern (ATP1). The settings on record: 20 nM protein, 50 mM HEPES pH 7.2, coelenterazine-h 1-10 μM.

The molecule `Nc1ncnc2c1ncn2[C@@H]1O[C@H](COP(=O)(O)OP(=O)(O)OP(=O)(O)O)[C@@H](O)[C@H]1O` [ATP] had a pKd of 3.52.

For the origin of these results see PMC3535334 (Nature Communications, 2012).
